Experimental data published in patent publication US7829562B2, “Sigma ligands for neuronal regeneration and functional recovery” (M's Science Corporation, priority 2003, dated 2010).

Assays:
[1] = molecular target: sigma-1 site compared to the sigma-2 site (Homo sapiens, UniProt Q99720); settings: (+) isomers of benzomorphan opiates; cited from earlier work
[2] = test system: spontaneously hypertensive rats exposed to permanent middle artery occlusion (MCAO); experiment: Rotating pole test after MCA occlusion (stroke model); format: in vivo, rat; settings: 0.03-10 mg/kg s.c. or p.o. from two days after MCAO for 2-8 weeks; present-tense example
Description: (§1) Male 3 months old SHR (spontaneous hypertensive) rats are used for induction of stroke by MCA occlusion. This is the preferred strain since most stroke patients are hypertensive. The animals are anesthetized with Methohexital and a small craniectomy is made above the zygmotic arch to expose the middle cerebral artery, which is occluded with a 10-0 monofilament nylon thread distal to the origin of the striatal branches. The rats are not intubated and no catheters are inserted. Following MCA occlusion a large and reproducible infarct is obtained, leading to a robust sensorimotor deficit. The animals are kept on a 6 hr light/18 h dark cycle with free access to food and water. At two days after the MCAO the rats are treated with the compound I, II, III, IV, V, VI, VII, VIII, or IX (0.03-10 mg/kg) s.c. or p.o. and a control group is given saline for 2-8 weeks. At 2, 4, 6 and 8 weeks animals are tested in the rotating pole or cylinder test.
Cylinder Test for Asymmetric Use of Forelimb Use in Spontaneous Rearing
Thirty five spontaneously hypertensive rats were exposed to permanent middle artery occlusion (MCAO), then divided into three treatment groups. Starting at two days after occlusion and continuing daily until 28 days after occlusion, AGY-94806 was administered s.c. in doses of 0.3 mg/kg (12 rats) or 1.0 mg/kg (12 rats). In a control group (11 rats), vehicle only was administered. At the start of treatment, and at several time points during the test, the rats were assessed for their performance in the rotating pole model. This model is described in Example 1. It requires the rats to cross a horizontally suspended rotating pole having a length of 1 m. This task measures the sensory-motor performance of the animals. The animals' behaviour was recorded using a video camera and later analyzed and scored by a trained technician. The scoring ranges from 0 to 6, with 0 being very poor performance and 6 reflecting the performance of a healthy animal (without MCAO).

[3] = test system: rat primary neuronal cultures; settings: cited from earlier work
[4] = test system: spontaneously hypertensive rats exposed to permanent middle artery occlusion (MCAO); experiment: Cylinder test for asymmetric forelimb use after MCA occlusion; format: in vivo, rat; settings: for performance in cylinder test versus control animals: 0.03-10 mg/kg s.c. or p.o. from two days after MCAO for 2-8 weeks, present-tense example
Description: as §1
The cylinder test (modified from Schallert and Tillerson (Innovative models of CNS disease: from molecule to therapy. Clifton, N.J., Humana, 1999) is used to quantify the forelimb use for rearing on the cylinder wall. The rats are monitored as they move freely in a 20-cm-wide clear glass cylinder. Contacts made by each forepaw with the cylinder wall while rearing are scored by a blinded observer. A total of 20 contacts are recorded for each animal, and the number of impaired (left), both, and non-impaired forelimb contacts as percentage of total contacts is calculated. Baseline for rats is achieved by measuring the contacts made by each forepaw before MCAO.
Forty three spontaneously hypertensive rats were exposed to permanent middle artery occlusion (MCAO), then divided into three treatment groups. Starting at two days after occlusion and continuing daily for 14 days, AGY-94806 was administered p.o. in doses of 0.1 mg/kg (14 rats) or 0.3 mg/kg (14 rats). In a control group (15 rats), vehicle only was administered. At the start of treatment, and at several time points during the test, the rats were assessed for their performance in the cylinder test. This test is described in Example 1. It measures the sensory-motor performance of the animals. The performance of the rats in the test was assessed one day before permanent MCAO, then at 14 days, 28 days and 59 days after permanent MCAO. The rats were monitored as they moved freely in a 20 cm-wide clear glass cylinder. Contacts made by each forepaw with the cylinder wall while rearing were scored by a blinded observer. A total of 20 contacts were recorded for each animal, and the number of impaired (left), both, and non-impaired forelimb contacts as a percentage of total contacts was calculated.

[5] = test system: NMDA-induced toxicity and seizures; settings: in vivo models; cited from earlier work
gerbils = settings: cited from earlier work

Chain of sigma-1 site compared to the sigma-2 site (Q99720 whole entry): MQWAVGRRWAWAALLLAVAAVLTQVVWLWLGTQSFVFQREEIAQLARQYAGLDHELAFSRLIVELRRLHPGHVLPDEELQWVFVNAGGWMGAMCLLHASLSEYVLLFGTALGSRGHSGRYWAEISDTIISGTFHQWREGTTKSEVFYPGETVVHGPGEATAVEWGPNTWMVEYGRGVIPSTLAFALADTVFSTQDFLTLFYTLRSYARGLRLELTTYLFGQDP

Row | Compound | performance in rotating pole test versus control animals [2] | performance in cylinder test versus control animals [4] | further results
1 | CC(C)=CCN1CCC2(C)c3cc(O)ccc3CC1C2C (single isomer, unassigned; (+)) [(+)pentazocine] |  |  | affinity for the sigma-1 site compared to the sigma-2 site [1]: nearly two orders of magnitude higher affinity
2 | COc1ccc(CCN2CCN(CCCc3ccccc3)CC2)cc1OC [AGY-94806, 1-(3,4-dimethoxyphenethyl)-4-(3-phenylpropyl) piperazine] | perform better | perform better | hypoxia/hypoglycemia-induced neurotoxicity [3]: significantly suppress; asymmetry of paw usage ([4]; 0.3 mg/kg p.o., all time points measured): reduced to pre-MCAO levels
3 | OC(CCCN1CCN(c2ncc(F)cn2)CC1)c1ccc(F)cc1 (stereo not shown) [BMY-14802] |  |  | protective effects against NMDA-induced toxicity and seizures [5]: in vivo protective effects
4 | O=C(OCCN1CCOCC1)C1(c2ccccc2)CCCCC1 [III] | perform better | perform better | 
5 | O=C(NC1CCN(Cc2ccccc2)CC1)c1ccc(I)cc1 [II] | perform better | perform better | 
6 | COc1ccc(CN2CCN(Cc3ccccc3)CC2)c(O)c1OC [IX] | perform better | perform better | 
7 | COCCCC/C(=N\OCCN)c1ccc(C(F)(F)F)cc1 [I] | perform better | perform better | 
8 | CN(CCc1ccc(Cl)c(Cl)c1)C1CCCCC1N1CCCC1 (stereo not shown) [VIII] | perform better | perform better | 
9 | COc1cccc2c1CCC(=O)N2CCCN1CCN(c2cccc(Cl)c2)CC1 [VII] | perform better | perform better | 
10 | CCC(C/C=C/c1ccccc1)(c1ccccc1)N(C)CC1CC1 (stereo not shown) [VI] | perform better | perform better | 
11 | Fc1ccc(-n2cc(CCCCN3CCC4(CC3)OCc3ccccc34)c3ccccc32)cc1 [V] | perform better | perform better | 
12 | CCN(CC)CCOC(=O)C1(c2ccccc2)CCCC1 [caramiphen] |  |  | protective effects against NMDA-induced toxicity and seizures [5]: in vivo protective effects
13 | O=C(CCCN1CCC(O)(c2ccc(Cl)cc2)CC1)c1ccc(F)cc1 [haloperidol] |  |  | protective effects against NMDA-induced toxicity and seizures [5]: in vivo protective effects
14 | OCCN1CCN(CCCN2c3ccccc3C=Cc3ccccc32)CC1 [opipramol] |  |  | protection against ischemia (gerbils): protect against ischemia
